US20020155496A1, “Saturated and unsaturated abietane derivatives, derived conjugates and uses in a diagnostic composition, a reagent and a device” (priority 1998, published 2002)

Tested on: anti-abietic acid antibody
Test: Competition ELISA assay with natural hormones (crossreaction of anti-abietic acid antibody)
Assay type: binding, mouse
Conditions: for inhibition / crossreaction in competition ELISA: increasing concentrations of hormone in 5 μg/ml anti-abietic acid antibody, abietic acid-ODN antigen phase, read at 492 nm
Description: The antigen phase was obtained as described in Example 11, and then increasing concentrations of hormone dissolved in a 5 μg/ml solution of anti-abietic acid antibody in PBS-Tween containing 10% by volume of horse serum are incubated for one hour at 37° C. After washes with PBS-Tween, an anti-mouse antibody antibody coupled to peroxidase, in solution in PBS-Tween-horse [lacuna] is incubated for one hour at 37° C. After washes, the enzymatic substrate, o-phenylenediamine, is added. The colorimetric reaction is stopped by adding 1N sulfuric acid. The intensity of the coloration is read at 492 nm on a bioMérieux Axia Micro-reader.

Compound	inhibition (concentration of 0.33 μmol/ml of hormone) [%]	inhibition / crossreaction in competition ELISA
N[C@@H](Cc1cc(I)c(Oc2cc(I)c(O)c(I)c2)c(I)c1)C(=O)O [Example T4]	25	crossreaction is observed
C[C@]12CC[C@H]3[C@@H](CCC4=CC(=O)CC[C@@]43C)[C@@H]1CC[C@@H]2O [testosterone]		no inhibition
CC(=O)[C@H]1CC[C@H]2[C@@H]3CCC4=CC(=O)CC[C@]4(C)[C@H]3CC[C@]12C [progesterone]		no inhibition
